This is an account of results in patent US8476270B2, “Dihydropyrido[4,3-b]pyrazine-3-ones as modulators of toll-like receptors” (Gilead Sciences, Inc., priority 2009, dated 2013).

The assay has as its system human Peripheral Blood Mononuclear Cell (PMBC). Briefly: PBMC assay: cytokine (IFN-alpha) stimulation at 24 hours. Type of assay: cell-based. The settings on record: 24 hours incubation, IFN-alpha in supernatant (Luminex). As for the experimental part:
PBMC Assay Protocol Assays were conducted to determine cytokine stimulation at 24 hours from human Peripheral Blood Mononuclear Cell (PMBC) using the compounds of the present invention. The assays were run in duplicate, with 8-point, half-log dilution curves. The compounds of the present invention were diluted from 10 mM DMSO solution. Cell supernatants are assayed directly for IFNa and 1:10 dilution for TNFa. The assays were performed in a similar fashion as described in Bioorg. Med. Chem. Lett. 16, 4559, (2006). Specifically, cryo-preserved PBMCs were thawed and seeded 96 well plates with 750,000 cells/well in 190 μL/well cell media. The PBMCs were then incubated for 1 hour at 37° C. at 5% CO2. Then, the compounds of the present invention were added in 10 μL cell media at 8 point, half-log dilution titration. The plates were incubated at 37° C. and 5% CO2 for 24 hours and then spinned at 1200 rpm for 10 min, which was followed by collecting supernatant and storing the same at −80° C. Cytokine secretion was assayed with Luminex and Upstate multi-plex kits, using a Luminex analysis instrument. IFN ECmax value for a compound was the concentration at which the compound stimulated maximum IFN-a production as determined using the assay method above.

Consider `COCCOc1nc(N)c2c(c1Cl)N(Cc1ccc(CN3CCCC3)cc1)CC(=O)N2` [D], for which the “MEC = minimum concentration for induction of IFN-alpha = 3-fold over background” value is reported as “e (e: = 1000 nM)”. The value for `CCCCOc1cc2c(c(N)n1)NC(=O)CN2Cc1ccc(CN2CCCC2)cc1` [B] was “c (c: 10 nM-99 nM)”; that for `CCCCOc1cc2c([nH]c(=O)c(=O)n2Cc2ccc(-c3ccc(CN4CCCC4)cc3)cc2)c(N)n1` [G] was “c (c: 10 nM-99 nM)”; that for `CCCCOc1cc2c([nH]c(=O)c(=O)n2Cc2ccc(-c3cccc(CN4CCCC4)c3)cc2)c(N)n1` [F] was “c (c: 10 nM-99 nM)”. The value for `COCCOc1cc2c(c(N)n1)NC(=O)CN2Cc1ccc(CN2CCCC2)cc1` [C] was “a (a: = 1 nM)”; that for `CCCCOc1cc2c([nH]c(=O)c(=O)n2Cc2ccc(CN3CCCC3)cc2)c(N)n1` [E] was “b (b: 1 nM-9 nM)”. On to `CCCCOc1cc2c(c(N)n1)NC(=O)CN2Cc1cccc(CN2CCCC2)c1` [A], for which the “MEC = minimum concentration for induction of IFN-alpha = 3-fold over background” value is “d (d: 100 nM-1000 nM)”.
